Source: patent US20140066385A1, “METHOD FOR TREATING CANCER BY COMBINED USE OF DRUGS” (Astellas Pharma Inc., priority 2011, published 2014)

Molecular target: T1, purified pig brain-derived tubulin (Sus scrofa, UniProt P02550+P02554)
T1 construct: purified pig brain-derived tubulin (final concentration: 2 mg/mL); purchased Cytoskeleton, Inc. (Denver, Colo., USA); host or cells: pig brain (tissue-purified)
Assay: Example 7: fluorescence-based assay of tubulin polymerization reaction
Format: biochemical
Method: S-nitroso-N-acetyl-D,L-penicillamine (SNAP), which is a NO donor, was purchased from Cayman Chemical Co. (Ann Arbor, Mich., USA) and used. A tubulin polymerization analysis kit was purchased from Cytoskeleton, Inc. (Denver, Colo., USA) and used. For paclitaxel, a paclitaxel included in the analysis kit was used as paclitaxel. Docetaxel was purchased from Sigma-Aldrich Co. (St. Louis, Mo., USA) and was used as docetaxel.
A fluorescence-based assay of tubulin polymerization reaction was carried out according to the manufacturer's instruction of the kit. That is, purified pig brain-derived tubulin (final concentration: 2 mg/mL) and SNAP (final concentration: 200 or 500 μmol/L) were incubated at room temperature for 15 minutes or longer in the buffer solution included in the kit. Subsequently, paclitaxel (final concentration: 3 μmmol/L) or docetaxel (final concentration: 1 μmol/L), and […] (final concentration: 1 mmol/L) were added to this buffer mixture, and then was incubated for 60 minutes at 37° C. During this incubation, the fluorescence intensity (measurement wavelength: excitation 350 nm/fluorescence 435 nm) was measured every one minute by using a microplate reader (Spectramax, Molecular Devices, LLC, Sunnyvale, Calif., USA). The value of fluorescence intensity was expressed as a percentage relative to the SNAP and taxane-untreated group by using the value obtained 60 minutes after the initiation of the reaction, which corresponded to the equilibrium steady-state phase, and the average value for three experiments was taken as the value.
The results are expressed as the mean value (Mean)±standard error (SEM) of five independent experiments. A comparison between a paclitaxel- or docetaxel-treated group and an untreated group was carried out by an unpaired statistical test (Student's t-test) of the difference between two groups. A comparison between a SNAP-untreated group (control group) and SNAP-treated groups (200 μmol/L and 500 μmol/L) in the presence or absence of the taxane-family drugs was carried out by Dunnett's multiple comparison test. A difference value of less than 5% was considered to be statistically significant. For the data processing, Graphpad Prism version 5.03 was used.

[1] = SNAP 200 or 500 μmol/L, 60 minutes

T1 sequence (P02554 whole entry): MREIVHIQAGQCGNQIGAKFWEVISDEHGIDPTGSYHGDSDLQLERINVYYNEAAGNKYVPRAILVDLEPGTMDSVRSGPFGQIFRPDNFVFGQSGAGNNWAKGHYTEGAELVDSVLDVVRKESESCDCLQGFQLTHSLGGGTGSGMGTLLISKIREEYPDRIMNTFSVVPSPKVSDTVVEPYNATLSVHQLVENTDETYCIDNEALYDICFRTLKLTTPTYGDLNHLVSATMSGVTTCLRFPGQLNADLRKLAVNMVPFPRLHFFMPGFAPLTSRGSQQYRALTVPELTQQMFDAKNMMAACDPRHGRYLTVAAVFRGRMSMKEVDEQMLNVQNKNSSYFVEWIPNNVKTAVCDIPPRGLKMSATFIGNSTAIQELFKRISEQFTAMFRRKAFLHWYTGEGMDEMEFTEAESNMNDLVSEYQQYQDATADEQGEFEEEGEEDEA
T1 sequence (P02550 whole entry): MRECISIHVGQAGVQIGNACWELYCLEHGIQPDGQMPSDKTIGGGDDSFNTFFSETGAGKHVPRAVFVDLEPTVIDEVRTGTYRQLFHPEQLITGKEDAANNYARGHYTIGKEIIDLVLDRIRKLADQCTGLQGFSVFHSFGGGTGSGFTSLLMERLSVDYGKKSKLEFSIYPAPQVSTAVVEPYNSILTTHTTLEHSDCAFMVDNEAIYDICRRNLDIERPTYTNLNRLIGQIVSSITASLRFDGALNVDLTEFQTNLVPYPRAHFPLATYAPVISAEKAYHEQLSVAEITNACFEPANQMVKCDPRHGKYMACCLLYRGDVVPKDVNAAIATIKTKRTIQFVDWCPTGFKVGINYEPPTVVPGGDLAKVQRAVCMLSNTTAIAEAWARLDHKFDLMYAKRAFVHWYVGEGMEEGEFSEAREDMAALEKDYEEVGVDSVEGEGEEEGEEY

SMILES	action of SNAP on the spontaneous tubulin polymerization reaction (SNAP 200 or 500 μmol/L, absence of taxanes, 60 minutes)	action of SNAP on the tubulin polymerization reaction promoted by docetaxel [1]	action of SNAP on the tubulin polymerization reaction promoted by paclitaxel [1]	tubulin polymerization (fluorescence intensity) as compared with the taxane-untreated group (docetaxel final concentration 1 μmol/L, 60 minutes after initiation, P<0.001) [%]
CC(=O)NC(C(=O)O)C(C)(C)SN=O (racemic) [SNAP, S-nitroso-N-acetyl-D,L-penicillamine]	significantly suppressed	significantly suppressed	significantly suppressed	–
CC(=O)O[C@@]12CO[C@@H]1C[C@H](O)[C@@]1(C)C(=O)[C@H](O)C3=C(C)[C@@H](OC(=O)[C@H](O)[C@@H](NC(=O)OC(C)(C)C)c4ccccc4)C[C@@](O)([C@@H](OC(=O)c4ccccc4)[C@H]21)C3(C)C [docetaxel]	–	–	–	184.1
